Measurements published in the supplement of paper PMC10307832.

Experiments:
Test in all cases: relative viability (nuclei count vs DMSO), 5 days (fraction); higher = more cells survive
NCI-H1623 = tested on: NCI-H1623
Summary of the method: (§1)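 Cells from lung cancer lines were seeded into 1536-well plates and, one day later, dosed by pin tool. Treatments were either a single drug or a fixed dose of an anchor drug with five library-drug doses (not always all listed) in √10 steps. After 5 days, nuclei were stained in a one-step fixation (final 0.05% Triton X-100, 1% formaldehyde, 1 ug/ml Hoechst) and counted on 4× images, and relative viability is the treated-to-vehicle nuclei ratio, as the median of duplicate plates.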

NCI-H1437 = tested on: NCI-H1437
Summary of the method: as §1

LOU-NH91 = tested on: LOU-NH91
Summary of the method: as §1

NCI-H3122 = tested on: NCI-H3122
Summary of the method: as §1

HCC-44 = tested on: HCC-44
Summary of the method: as §1

NCI-H2085 = tested on: NCI-H2085
Summary of the method: as §1

For `O=c1cc(N2CCOCC2)oc2c(-c3cccc4c3sc3ccccc34)cccc12` + CCNC(=O)c1noc(-c2cc(C(C)C)c(O)cc2O)c1-c1ccc(CN2CCOCC2)cc1 [Luminespib] (partner 0.01 µM), the relative viability (NCI-H1623; first compound 0.01 µM) was 0.383, the relative viability (NCI-H1623; first compound 0.03162 µM) was 0.521 and the relative viability (NCI-H1623; first compound 0.1 µM) was 0.495. It also gave a relative viability (NCI-H1623; first compound 0.3162 µM) of 0.475, a relative viability (NCI-H1623; first compound 1 µM) of 0.409 and a relative viability (NCI-H1437; first compound 0.01 µM) of 0.835. It also gave a relative viability (NCI-H1437; first compound 0.03162 µM) of 1.03, a relative viability (NCI-H1437; first compound 0.1 µM) of 1.1 and a relative viability (NCI-H1437; first compound 0.3162 µM) of 1.08. It also gave a relative viability (NCI-H1437; first compound 1 µM) of 1.04, a relative viability (LOU-NH91; first compound 0.01 µM) of 0.352 and a relative viability (LOU-NH91; first compound 0.03162 µM) of 0.318. The relative viability (LOU-NH91; first compound 0.1 µM) was 0.33, the relative viability (LOU-NH91; first compound 0.3162 µM) was 0.373 and the relative viability (LOU-NH91; first compound 1 µM) was 0.36. It also gave a relative viability (NCI-H3122; first compound 0.01 µM) of 0.073, a relative viability (NCI-H3122; first compound 0.03162 µM) of 0.101 and a relative viability (NCI-H3122; first compound 0.1 µM) of 0.0916. The relative viability (NCI-H3122; first compound 0.3162 µM) was 0.0864, the relative viability (NCI-H3122; first compound 1 µM) was 0.0779 and the relative viability (HCC-44; first compound 0.01 µM) was 1.02. The relative viability (HCC-44; first compound 0.03162 µM) was 1.01, the relative viability (HCC-44; first compound 0.1 µM) was 1.31 and the relative viability (HCC-44; first compound 0.3162 µM) was 0.998. It also gave a relative viability (HCC-44; first compound 1 µM) of 1.11, a relative viability (NCI-H2085; first compound 0.01 µM) of 0.407 and a relative viability (NCI-H2085; first compound 0.03162 µM) of 0.427. For the same compound, the relative viability (NCI-H2085; first compound 0.1 µM) was 0.534, the relative viability (NCI-H2085; first compound 0.3162 µM) was 0.49 and the relative viability (NCI-H2085; first compound 1 µM) was 0.48.

`CCN(CC)CCCCNc1ncc2cc(-c3cc(OC)cc(OC)c3)c(NC(=O)NC(C)(C)C)nc2n1` + CCNC(=O)c1noc(-c2cc(C(C)C)c(O)cc2O)c1-c1ccc(CN2CCOCC2)cc1 [Luminespib] (partner 0.01 µM) was tested, and the relative viability (NCI-H1623; first compound 0.01 µM) was 0.605, the relative viability (NCI-H1623; first compound 0.03162 µM) was 0.54 and the relative viability (NCI-H1623; first compound 0.1 µM) was 0.443. The relative viability (NCI-H1623; first compound 0.3162 µM) was 0.607, the relative viability (NCI-H1623; first compound 1 µM) was 0.722 and the relative viability (NCI-H1437; first compound 0.01 µM) was 1.18. For the same compound, the relative viability (NCI-H1437; first compound 0.03162 µM) was 1.1, the relative viability (NCI-H1437; first compound 0.1 µM) was 1.26 and the relative viability (NCI-H1437; first compound 0.3162 µM) was 1.1. It also gave a relative viability (NCI-H1437; first compound 1 µM) of 1.05, a relative viability (LOU-NH91; first compound 0.01 µM) of 0.338 and a relative viability (LOU-NH91; first compound 0.03162 µM) of 0.364. For the same compound, the relative viability (LOU-NH91; first compound 0.1 µM) was 0.36, the relative viability (LOU-NH91; first compound 0.3162 µM) was 0.421 and the relative viability (LOU-NH91; first compound 1 µM) was 0.356. For the same compound, the relative viability (NCI-H3122; first compound 0.01 µM) was 0.0914, the relative viability (NCI-H3122; first compound 0.03162 µM) was 0.082 and the relative viability (NCI-H3122; first compound 0.1 µM) was 0.112. For the same compound, the relative viability (NCI-H3122; first compound 0.3162 µM) was 0.0822, the relative viability (NCI-H3122; first compound 1 µM) was 0.127 and the relative viability (HCC-44; first compound 0.01 µM) was 1.07. For the same compound, the relative viability (HCC-44; first compound 0.03162 µM) was 1.06, the relative viability (HCC-44; first compound 0.1 µM) was 0.801 and the relative viability (HCC-44; first compound 0.3162 µM) was 1.06. It also gave a relative viability (HCC-44; first compound 1 µM) of 0.866, a relative viability (NCI-H2085; first compound 0.01 µM) of 0.419 and a relative viability (NCI-H2085; first compound 0.03162 µM) of 0.424. It also gave a relative viability (NCI-H2085; first compound 0.1 µM) of 0.402, a relative viability (NCI-H2085; first compound 0.3162 µM) of 0.405 and a relative viability (NCI-H2085; first compound 1 µM) of 0.458.

`O=c1cc(-c2cccc3c2Sc2ccccc2S3)oc(N2CCOCC2)c1` + CCNC(=O)c1noc(-c2cc(C(C)C)c(O)cc2O)c1-c1ccc(CN2CCOCC2)cc1 [Luminespib] (partner 0.01 µM) gave a relative viability (NCI-H1623; first compound 0.08 µM) of 0.615, a relative viability (NCI-H1623; first compound 0.253 µM) of 0.589 and a relative viability (NCI-H1623; first compound 0.8 µM) of 0.472. For the same compound, the relative viability (NCI-H1623; first compound 2.53 µM) was 0.411, the relative viability (NCI-H1623; first compound 8 µM) was 0.495 and the relative viability (NCI-H1437; first compound 0.08 µM) was 1.08. For the same compound, the relative viability (NCI-H1437; first compound 0.253 µM) was 1.29, the relative viability (NCI-H1437; first compound 0.8 µM) was 1.28 and the relative viability (NCI-H1437; first compound 2.53 µM) was 1.15. For the same compound, the relative viability (NCI-H1437; first compound 8 µM) was 1.21, the relative viability (LOU-NH91; first compound 0.08 µM) was 0.327 and the relative viability (LOU-NH91; first compound 0.253 µM) was 0.43. It also gave a relative viability (LOU-NH91; first compound 0.8 µM) of 0.339, a relative viability (LOU-NH91; first compound 2.53 µM) of 0.354 and a relative viability (LOU-NH91; first compound 8 µM) of 0.357. For the same compound, the relative viability (NCI-H3122; first compound 0.08 µM) was 0.109, the relative viability (NCI-H3122; first compound 0.253 µM) was 0.102 and the relative viability (NCI-H3122; first compound 0.8 µM) was 0.111. For the same compound, the relative viability (NCI-H3122; first compound 2.53 µM) was 0.0685, the relative viability (NCI-H3122; first compound 8 µM) was 0.106 and the relative viability (HCC-44; first compound 0.08 µM) was 1.17. It also gave a relative viability (HCC-44; first compound 0.253 µM) of 0.971, a relative viability (HCC-44; first compound 2.53 µM) of 0.993 and a relative viability (HCC-44; first compound 8 µM) of 1.04. It also gave a relative viability (NCI-H2085; first compound 0.08 µM) of 0.408, a relative viability (NCI-H2085; first compound 0.253 µM) of 0.526 and a relative viability (NCI-H2085; first compound 0.8 µM) of 0.39. The relative viability (NCI-H2085; first compound 2.53 µM) was 0.437 and the relative viability (NCI-H2085; first compound 8 µM) was 0.354.
